# From patent US12691151B2, “Methods and compositions for improving oncolytic virus infection for nonpermissive cancers” (Arizona Board of Regents on behalf of Arizona State …, priority 2019, dated 2026)
# Entries after “also recorded” stand apart in the source; their conditions may differ.
# Legend:
# Assay type in all cases: cell-based, human
# HT29 cells [1] = test system: HT29 cells
# PANC-1 cells [2] = test system: PANC-1 cells
# MDA-MB-435 cells [3] = test system: MDA-MB-435 cells
# HT29 cells [4] = test system: HT29 cells; remark: listed apart in the source
# PANC-1 cells [5] = test system: PANC-1 cells; remark: listed apart in the source
# MDA-MB-435 cells [6] = test system: MDA-MB-435 cells; remark: listed apart in the source
# A549 cell line = assay: MYXV replication in the permissive A549 cell line
# PANC-1 cells [7] = test system: PANC-1 cells; remark: listed apart in the source
smiles,measurement,setting,value
CCC(=C/[C@H](C)C/C=C/C(C)=C/[C@@H](C)C(=O)[C@@H](C)[C@H](O)[C@@H](C)C/C(C)=C/C(=O)O)/C=C/[C@@H]1OC(=O)C=C[C@@H]1C [Leptomycin B],GFP (early/late) and TdTomato (late) expression,HT29 cells [1],enhanced MYXV early (GFP) and late (TdTomato) gene expression levels
same,formation of foci,HT29 cells [1],allowed formation of small foci
same,GFP (early/late) and TdTomato (late) expression,PANC-1 cells [2],enhanced GFP (early/late) and TdTomato (late) expression; also recorded: enhanced MYXV gene expression
same,formation of foci,PANC-1 cells [2],allowed formation of small foci
same,GFP (early/late) and TdTomato (late) expression,MDA-MB-435 cells [3],enhanced GFP (early/late) and TdTomato (late) expression; also recorded: enhanced MYXV gene expression
same,formation of foci,MDA-MB-435 cells [3],allowed formation of small foci
same,viral replication (virus titer),HT29 cells [4],enhanced viral replication; also recorded: enhanced MYXV replication
same,viral replication (virus titer),PANC-1 cells [5],enhanced MYXV gene expression and replication
same,viral replication (virus titer),MDA-MB-435 cells [6],enhanced MYXV gene expression and replication
same,viral replication,A549 cell line,only increased viral replication at an MOI of 0.1 or lower
same,"cell viability (ATP), Leptomycin B pretreatment plus MYXV",PANC-1 cells [7],further reduced the viability; also recorded: reduced cell viability
same,cell viability (ATP),PANC-1 cells [7]; 40 h,sensitive to Leptomycin B treatment alone
